Results on two compounds are retold here after article PMC5458179, “Oxidative DNA double strand breaks and autophagy in the antitumor effect of sterically hindered platinum(II) complexes in NSCLCs” (Oncotarget, 2017).

As a reminder, the IC50 is the concentration that gives 50% inhibition.

The test system of data set [1] is A549. Briefly: MTT cytotoxicity assay. The format is cell-based, human. Conditions: 48 h drug exposure. On the procedure: (§1) The results reveal that the steric hindrance plays a significant role in the cytotoxicity of complex 3.
(§2) The effects of complex 3 on the viability of NSCLC cancer cells including A549 and NCI-H1299 were detected respectively via MTT assays at time points of 12, 24, 48 and 72 h (Figure 2A). The results shown that complex 3 could inhibit the viability of the NSCLC cells.
(§3) Human cancer cell lines HepG2, SGC-7901, HCT-116, A549, NCI-H1299 and MCF-7 as well as normal liver cell line L02 were purchased from the Cell Bank of Shanghai Institute of Cell Biology. Among them, MCF-7, HepG2 cells were cultured at 37 °C in 5% CO2 with DMEM supplemented with 10% fetal bovine serum (FBS) (Hyclone, Lifescience, USA) and 1% penicillin/streptomycin (Beyotime, Nantong, China), while HCT-116, SGC-7901, A549, NCI-H1299 and L02 cells were cultured at 37 °C in 5% CO2 with RPMI-1640 supplemented with 10% FBS and 1% penicillin/streptomycin. Cells were passed every 2 days and restarted from frozen stocks upon reaching pass number 20.
(§4) In vitro cytotoxicity of the platinum compounds against human hepatocellular carcinoma (HepG-2), gastric carcinoma (SGC-7901), non-small-cell lung cancer (A549), and colorectal cancer (HCT-116) cell lines were measured by the MTT assays. Briefly, the cells were seeded in 96-well cultured plates at a density of 5000 cells/well. After overnight incubation (16 h), the cells were treated with the platinum complexes. After 48 h of incubation, 10 μL of a freshly diluted 3-(4,5-dimethyl-2-thiazolyl)-2,5-diphenyl-2H-tetrazolium bromide (MTT) solution (5 mg/mL) were added to each well and the plates were incubated at 37 °C in a humidified 5% CO2 atmosphere for 4 h. At the end of the incubation period the medium was removed and the formazan product was dissolved in 150 μL of DMSO. The cell viability was evaluated by measurement of the absorbance at 490 nm, using an Absorbance Reader (BioRad). IC50 values (compound concentration that produces 50% of cell growth inhibition) were calculated from curves constructed by plotting cell survival inhibitory rate (%) versus drug concentration logarithm. All experiments were repeated in three times. The reading values were converted to the percentage of control (% cell survival). Cytotoxic effects were expressed as IC50 values.

For data set [2], the system named is NCI-H1299. Briefly: MTT cytotoxicity assay. The class given is cell-based, human. On the procedure: as §1, §2, §3, §4
For data set [3], the system named is pET28a plasmid DNA. Briefly: Agarose gel electrophoresis of plasmid DNA. Conditions: 0, 20, 80, 320, 640 μM.
Procedure: The tested complexes were incubated with DNA at different concentrations.
Appropriate dilutions of tested complexes were made, and the required volumes of solutions were added to achieve a set of concentrations in the range of 0–100 mm; pET22b DNA (5 mL, 0.20 mg) was added to each tube, and the mixtures of platinum complexes and pET22b plasmid DNA were then incubated at 37°C for 6 or 24 h. Afterward, the agarose gel (made up to 1% w/v) containing ethidium bromide was prepared with TA buffer (50 mm Tris-acetate, pH 7.5). The mixtures with loading buffer (1 mL) underwent electrophores is in agarose gel in TA buffer at 100 V for 60 min. Bands were imaged using a Molecular Imager (Bio-Rad, USA) under UV light.
The subject of data set [4] is A549 xenograft tumors. The note with it: for tumor growth inhibition rate: 5 mg/kg i.v., complex 3 once every three days, oxaliplatin twice a week, tumor weight at end. As for the experimental part: To evaluate the anti-tumor effect of complex 3 in vivo, an xenografts nude mice model of A549 cancer cells was performed. […] At the end of treatments, the tumor weight was measured to detect the antitumor activity of these measured groups. […] Because platinum-based drugs are well known for their toxic effects on the mean bodyweights of treated animals, the toxicity of complex 3 in the body weights of mice was assayed. […] The mice treated with the tested complex 3 were selected for histological analyses.
Thirty-five nude mice (BALB/c) with body weight range from 18–22 g, were supplied by Shanghai Laboratory Animal Center, China Academy of Sciences. Experimental protocols were in accordance with National Institutes of Health regulations and approved by the Institutional Animal Care and Use Committee. All animals were randomly divided into 5 groups. The A549 single-cell suspension in PBS (1×10^7 cells per mouse) was injected subcutaneously into the right oxter of nude mice. […] The control group was administered glucose. The tumor growth was monitored by measuring the perpendicular diameter of the tumor using calipers every two days and calculated according to the formula:
Tumor volume (mm^3) = 0.5 × length × width^2
Growth curves were plotted using the average tumor volume within each experimental group at the set time points. The whole group of mice was sacrificed after the last treatment, then tumor weight was evaluated as the antitumor activity of the corresponding groups, and the kidneys, livers and tumors were excised for immunohistochemistry analysis. The body weight and physical state of the mice were measured simultaneously as an indicator of systemic toxicity.

Data set [5] relates to A549 cells. Briefly: Annexin V-FITC/PI apoptosis assay (flow cytometry). The format is cell-based, human. The note with it: A549, 50 μM for 24 h (figure legend and method: 10 μM). On the procedure:
(§5) Apoptosis is a crucial programmed death form of aging or damaged cells. […] To further explore the impact of complex 3 on long-term clonogenic survival, colony formation assay was performed.
(§6) Annexin V-FITC apoptosis detection kit (Keygen, Jiangsu, China) assay was performed according to the manufacturer's protocol. […] Then the cells were collected, resuspended in binding buffer (pH 7.5, 10 mM HEPES, 2.5 mM CaCl2 and 140 mM NaCl), incubated with Annexin V-FITC and then PI for 10 min in the dark at room temperature, the processed cells were analyzed by flow cytometry (FACSCalibur, Becton Dickinson) and a computer station running Cell-Quest software. (BD Biosciences, Franklin Lakes, NJ).
On the technique in general: In flow cytometry, cells or beads pass a laser one at a time.

Data set [6] has as its system NCI-H1299 cells. Briefly: Annexin V-FITC/PI apoptosis assay (flow cytometry). The format is cell-based, human. Conditions: NCI-H1299, 50 μM for 24 h (figure legend and method: 10 μM). On the procedure: as §5, §6
A short description of data set [7]: Blood stability test with rat plasma (ICP-MS). The format is in vitro ADME. The note with it: 37°C, 10 μM (method: 50 μM). As for the experimental part:
Thus, we investigated the stability of complex 3 in rat plasma via ICP-MS measurement. Fresh rat plasma was added with a DMSO solution of complex 3 (10 μM). After incubation for 0, 2, 4 and 8 h at 37°C, the Pt content in rat plasma was measured by ICP-MS. […] This interaction contributes to the promising stability of complex 3 in rat plasma.
At varying time points (0, 2, 4 and 8 h) at 37°C, a 300 μL aliquot was removed from the incubating blood. The ICP-MS measurement was served to confirm the blood stability of complex 3 in rat plasma.

Data set [8] concerns L02 normal liver cell line. Briefly: MTT cytotoxicity assay. The class given is cell-based. The note with it: 48 h drug exposure. As for the experimental part: as §1, §3, §4
(In general: Tetrazolium dyes change colour on reduction, which living cells bring about.)

Where [9] appears, read: 48 h drug exposure, read-out: IC50 NCI-H1299.

The structures appear in SMILES notation. Like-named read-outs stand apart in the source and are kept apart here.

Consider `CC(C)C[NH+]1[C@@H]2CCCC[C@H]2[NH+](CC(C)C)[Pt-2]12[O]C(=O)CC(=O)[O]2` (stereo partly shown) [Complex 3], for which the IC50 in data set [1] was 14.2 ± 1.22 µM; in data set [2] (24 h, 2 to 128 μM, read-out: IC50 NCI-H1299 exposed for 24 h), 7.42 µM; in data set [2] (setting [9]), 20.9 ± 1.36 µM; in data set [8], 82.6 ± 3.95 µM. In data set [3], the “gel electrophoretic mobility of plasmid DNA” value is reported as “a strong unwinding of the supercoiled DNA”. In data set [4] (5 mg/kg i.v. once every three days), the tumor volumes result is reported as “significantly decreased”. Besides, the “tumor growth inhibition rate” value in data set [4] came to 67.96%. In data set [4] (immunoblotting), the “expressions of LC3 in tumor tissues” value is “increased expressions of LC3 in tumor tissues”. Also, the “bodyweights of mice during treatment” value in data set [4] (mouse, in vivo) was “increase of bodyweights”. Further, the “early and median apoptotic cells” value in data set [5] amounted to 0.94%; in data set [6], 9.77%. Also, in data set [6], the late apoptotic cells came out at 27.51%. For the same compound, the “t1/2 in rat plasma (stability)” value in data set [7] was 27.6 h.
For `O=C1[O][Pt]2([NH][C@@H]3CCCC[C@H]3[NH]2)[O]C1=O` [Oxaliplatin, oxaliplatin, reference compound], the IC50 in data set [1] amounted to 112 ± 11.3 µM; in data set [2] (setting [9]), 62.4 ± 2.35 µM; in data set [8] it was 42.9 ± 3.54 µM. The “gel electrophoretic mobility of plasmid DNA” value in data set [3] is given as “a decrease in the rate of migration for closed circular DNA (Form I)”. Moreover, in data set [4], the “tumor growth inhibition rate” value is on record as 34.48%. Besides, the “early and median apoptotic cells” value was 29.50% in data set [5] and 10.27% in data set [6]. Further, in data set [6], the late apoptotic cells is listed as 15.98%. For the same compound, in data set [7], the “t1/2 in rat plasma (stability)” value was ~ 13.1 h.
